From patent US5541174A, “Analgesic method” (priority 1995, dated 1996)
Like-named read-outs stand apart in the source and are kept apart here.

How the values were obtained:
[1] = system: adjuvant-induced arthritic pain in rats; experiment: Adjuvant-induced arthritic pain; format: in vivo, male Sprague-Dawley rats
Source text: 2. Adjuvant-induced arthritic pain as described in:
S. KUZNA, et al., Measurement of Arthritic Pain and Effects of Analgesics in the Adjuvant-Treated Rat, Chem. Pharm. Bull. 23, 1184-1191 (1975);
C. A. WINTER, et al., Analgesic Activity of Diflunisal in Rats with Hyperalygesia Induced by Freud's Adjuvant, J. Pharmacol. Exp. Ther. 211, 678-685 (1979; and
M. E. ROSENTHALE, et al., Adjuvant Arthritis:Immuno-Pathological and Hyperalgesic Features, Fed. Proced. 41, 2577-2582 (1982),
incorporated by reference herein.
Groups of 5-6 male Sprague-Dawley rats (Taisho Pharmaceutical Co. Research Center) weighing 140 to 160 g at the time of Mycobacterium butyricum (adjuvant, Difco Laboratories, Detroit, Mich.) injection were used to study each compound. Rats were injected intradermally at the base of the tail with 0.1 ml of a parafin oil suspension of 0.5 mg of heat-killed mycobacterium. Fifteen to 19 days later, drugs were administered orally or subcutaneously in 0.5 ml of vehicle per 100 g of body weight to rats showing the nociceptive reaction, vocalization following a gentle flexion of the tarsal-tibial joint of the inflamed hind-paw. Vocalization responses were measured every hour for 5 hours. […] The ED50 value and 95% confidence limits were calculated from the positive rate for non-treated controls, vehicle-treated adjuvant arthritic rats, by the method of Litchfield and Wilcoxin.
All drugs were suspended with 5% gum arabic in saline solution or wetted with enough propylene glycol to give a final concentration of 4% propylene glycol and the wetted solid suspended in 1.4% polyvinyl alcohol in saline.

[2] = system: acetic acid induced writhing in mice; experiment: Acetic acid-induced writhing test; format: in vivo, ICR male mice
Procedure: 1. Acetic acid-induced writhing test as described in Koster et al., "Acetic Acid for Analgesic Screening", Fed. Proc. 18, 412 (1959), incorporated by reference herein; and
Groups of 10 ICR male mice (Taisho Pharmaceutical Co. Research Center) were used to study each dose of every compound. Ligands or complexes were administered orally or subcutaneously in 0.1 ml of vehicle per 10 g of body weight 30 minutes before the intrapertioneal injection of 0.1 ml of 0.7% acetic acid solution per 10 g of body weight. Number of writhes were counted for each mouse during a period of 10 to 20 min after acetic acid injection. Inhibitory percent was calculated by comparison with the number of writhes in the non-treated control, vehicle-treated, and acetic acid-injected group. The ED50 value and 95% confidence limits were calculated from the inhibitory percent by the method of Litchfield and Wilcoxon.

[3] = oral, 5% gum arabic, 0.20 mmol/kg
[4] = oral, 5% gum arabic, 0.40 mmol/kg
[5] = oral, 5% gum arabic, 0.30 mmol/kg
[6] = oral, 5% gum arabic, 0.60 mmol/kg
[7] = oral, 5% gum arabic, 0.15 mmol/kg
[8] = oral, 5% gum arabic, 0.56 mmol/kg
[9] = oral, 5% gum arabic, 1.11 mmol/kg
[10] = oral, 5% gum arabic, 0.59 mmol/kg
[11] = oral, 5% gum arabic, 0.45 mmol/kg
[12] = oral, 5% gum arabic, 0.90 mmol/kg

CC(C)c1cc(C(=O)[O-])c(O)c(C(C)C)c1.CC(C)c1cc(C(=O)[O-])c(O)c(C(C)C)c1.[Cu+2] [Cu(II)(3,5-dips)2]
analgesic effectiveness versus parent ligand ([1]; oral, 5% gum arabic): essentially equipotent with its ligand
ED50 ([1]; oral, 5% gum arabic in saline): 0.43 mmol/kg
% Inhibition ([1]; oral, 5% gum arabic, 0.10 mmol/kg): 7%
% Inhibition [1, 3]: 20%
% Inhibition [1, 4]: 47%
analgesic effectiveness versus parent ligand ([1]; oral, PG-PVA): more effective than its parent ligand
ED50 ([1]; oral, PG-PVA in saline): > 0.40 mmol/kg
% Inhibition ([1]; oral, PG-PVA, 0.40 mmol/kg): 40%
ED50 ([1]; s.c., PG-PVA in saline): 0.12 mmol/kg
% Inhibition ([1]; s.c., PG-PVA, 0.05 mmol/kg): 23%
% Inhibition ([1]; s.c., PG-PVA, 0.10 mmol/kg): 37%
% Inhibition ([1]; s.c., PG-PVA, 0.20 mmol/kg): 70%
ED50 ([2]; oral, 5% gum arabic in saline): 0.40 mmol/kg
analgesic effectiveness versus parent ligand ([2]; oral, 5% gum arabic in saline): slightly less effective than its parent ligand
% Inhibition [2, 3]: 35%
% Inhibition [2, 4]: 48%
% Inhibition ([2]; oral, 5% gum arabic, 0.80 mmol/kg): 66%
analgesic effectiveness versus parent ligand ([2]; oral, PG-PVA): only as effective as its parent ligand
ED50 ([2]; oral, PG-PVA in saline): 0.43 mmol/kg
% Inhibition ([2]; oral, PG-PVA, 0.20 mmol/kg): 26%
% Inhibition ([2]; oral, PG-PVA, 0.40 mmol/kg): 56%
% Inhibition ([2]; oral, PG-PVA, 0.79 mmol/kg): 62%
ED50 ([2]; s.c., PG-PVA in saline): 0.20 mmol/kg
% Inhibition ([2]; s.c., PG-PVA, 0.10 mmol/kg): 27%
% Inhibition ([2]; s.c., PG-PVA, 0.20 mmol/kg): 45%
% Inhibition ([2]; s.c., PG-PVA, 0.40 mmol/kg): 74%

Nc1ccccc1C(=O)[O-].Nc1ccccc1C(=O)[O-].[Cu+2] [Cu(II)(anthranilate)2, Bisanthranilato(O,N)copper(II)]
analgesic effectiveness versus parent ligand ([1]; oral, 5% gum arabic): less effective than its parent ligand
ED50 ([1]; oral, 5% gum arabic in saline): > 0.60 mmol/kg
% Inhibition [1, 5]: 0%
% Inhibition [1, 6]: 10%
analgesic effectiveness versus parent ligand ([1]; oral, PG-PVA): less effective than its parent ligand
ED50 ([1]; oral, PG-PVA in saline): > 0.60 mmol/kg
% Inhibition ([1]; oral, PG-PVA, 0.60 mmol/kg): 17%
ED50 ([1]; s.c., PG-PVA in saline): 0.19 mmol/kg
% Inhibition ([1]; s.c., PG-PVA, 0.07 mmol/kg): 20%
% Inhibition ([1]; s.c., PG-PVA, 0.15 mmol/kg): 43%
% Inhibition ([1]; s.c., PG-PVA, 0.30 mmol/kg): 63%
ED50 ([2]; oral, 5% gum arabic in saline): 0.50 mmol/kg
analgesic effectiveness versus parent ligand ([2]; oral, 5% gum arabic in saline): more effective than their parent ligands
% Inhibition [2, 7]: 25%
% Inhibition [2, 5]: 47%
% Inhibition [2, 6]: 50%
analgesic effectiveness versus parent ligand ([2]; oral, PG-PVA): more effective than their parent ligands
ED50 ([2]; oral, PG-PVA in saline): > 0.89 mmol/kg
ED50 ([2]; s.c., PG-PVA in saline): 0.22 mmol/kg
% Inhibition ([2]; s.c., PG-PVA, 0.07 mmol/kg): 30%
% Inhibition ([2]; s.c., PG-PVA, 0.15 mmol/kg): 42%
% Inhibition ([2]; s.c., PG-PVA, 0.30 mmol/kg): 57%

CC(=O)Oc1ccccc1C(=O)O [Aspirin, acetylsalicylic acid, reference compound]
ED50 ([1]; oral, 5% gum arabic in saline): 0.62 mmol/kg
% Inhibition ([1]; oral, 5% gum arabic, 0.28 mmol/kg): 27%
% Inhibition [1, 8]: 43%
% Inhibition [1, 9]: 70%
ED50 ([1]; oral, PG-PVA in saline): 1.41 mmol/kg
% Inhibition ([1]; oral, PG-PVA, 0.56 mmol/kg): 30%
% Inhibition ([1]; oral, PG-PVA, 1.11 mmol/kg): 40%
% Inhibition ([1]; oral, PG-PVA, 2.22 mmol/kg): 63%
ED50 ([2]; oral, 5% gum arabic in saline): 1.30 mmol/kg
% Inhibition [2, 8]: 29%
% Inhibition [2, 9]: 42%
% Inhibition ([2]; oral, 5% gum arabic, 2.22 mmol/kg): 66%
ED50 ([2]; oral, PG-PVA in saline): 0.48 mmol/kg
% Inhibition ([2]; oral, PG-PVA, 0.21 mmol/kg): 32%
% Inhibition ([2]; oral, PG-PVA, 0.42 mmol/kg): 41%
% Inhibition ([2]; oral, PG-PVA, 0.84 mmol/kg): 67%
ED50 ([2]; s.c., PG-PVA in saline): 0.52 mmol/kg
% Inhibition ([2]; s.c., PG-PVA, 0.28 mmol/kg): 28%
% Inhibition ([2]; s.c., PG-PVA, 0.56 mmol/kg): 57%
% Inhibition ([2]; s.c., PG-PVA, 1.11 mmol/kg): 71%

NCC(=O)[O-].NCC(=O)[O-].[Cu+2] [Cu(II)(glycinate)2]
activity versus other copper complexes and parent ligand ([2]; Table VI): less active than the other copper complexes
ED50 ([2]; oral, 5% gum arabic in saline): > 1.89 mmol/kg
% Inhibition ([2]; oral, 5% gum arabic, 1.89 mmol/kg): 48%

(Salicylato)2n -(aqua)4n -copper(II)n [Cu(II)(salicylate)2]
analgesic effectiveness versus parent ligand ([1]; oral, 5% gum arabic): more effective than its parent ligand
ED50 ([1]; oral, 5% gum arabic in saline): 0.25 mmol/kg
% Inhibition [1, 7]: 27%
% Inhibition [1, 5]: 57%
% Inhibition [1, 10]: 73%
time course of analgesia ([1]; oral, 5% gum arabic, FIG. 1, 5 hours post-treatment): maintained or increased throughout the entire 5 hour post-treatment interval
analgesic effectiveness versus parent ligand ([1]; oral, PG-PVA): more effective than its parent ligand
ED50 ([1]; oral, PG-PVA in saline): 0.12 mmol/kg
% Inhibition ([1]; oral, PG-PVA, 0.15 mmol/kg): 30%
% Inhibition ([1]; oral, PG-PVA, 0.30 mmol/kg): 47%
% Inhibition ([1]; oral, PG-PVA, 0.59 mmol/kg): 90%
ED50 ([1]; s.c., PG-PVA in saline): 0.12 mmol/kg
% Inhibition ([1]; s.c., PG-PVA, 0.04 mmol/kg): 20%
% Inhibition ([1]; s.c., PG-PVA, 0.07 mmol/kg): 37%
% Inhibition ([1]; s.c., PG-PVA, 0.15 mmol/kg): 57%
ED50 ([2]; oral, 5% gum arabic in saline): 0.65 mmol/kg
analgesic effectiveness versus parent ligand ([2]; oral, 5% gum arabic in saline): more effective than their parent ligands
% Inhibition [2, 5]: 30%
% Inhibition [2, 10]: 43%
% Inhibition ([2]; oral, 5% gum arabic, 1.18 mmol/kg): 69%
analgesic effectiveness versus parent ligand ([2]; oral, PG-PVA): more effective than their parent ligands
ED50 ([2]; oral, PG-PVA in saline): 1.53 mmol/kg
% Inhibition ([2]; oral, PG-PVA, 0.30 mmol/kg): 20%
% Inhibition ([2]; oral, PG-PVA, 0.59 mmol/kg): 27%
% Inhibition ([2]; oral, PG-PVA, 1.18 mmol/kg): 46%
ED50 ([2]; s.c., PG-PVA in saline): 0.17 mmol/kg
% Inhibition ([2]; s.c., PG-PVA, 0.07 mmol/kg): 40%
% Inhibition ([2]; s.c., PG-PVA, 0.15 mmol/kg): 48%
% Inhibition ([2]; s.c., PG-PVA, 0.30 mmol/kg): 66%

CC(C)c1cc(C(=O)O)c(O)c(C(C)C)c1 [3,5-Dips, 3,5-diisopropylsalicylic acid, reference compound]
ED50 ([1]; oral, 5% gum arabic in saline): 0.36 mmol/kg
% Inhibition ([1]; oral, 5% gum arabic, 0.22 mmol/kg): 30%
% Inhibition [1, 11]: 53%
% Inhibition [1, 12]: 92%
ED50 ([1]; oral, PG-PVA in saline): > 0.90 mmol/kg
% Inhibition ([1]; oral, PG-PVA, 0.45 mmol/kg): 27%
% Inhibition ([1]; oral, PG-PVA, 0.90 mmol/kg): 43%
ED50 ([2]; oral, 5% gum arabic in saline): 0.27 mmol/kg
% Inhibition [2, 11]: 66%
% Inhibition [2, 12]: 88%
ED50 ([2]; oral, PG-PVA in saline): 0.44 mmol/kg
% Inhibition ([2]; oral, PG-PVA, 0.45 mmol/kg): 56%
% Inhibition ([2]; oral, PG-PVA, 0.90 mmol/kg): 78%
ED50 ([2]; s.c., PG-PVA in saline): 0.23 mmol/kg
% Inhibition ([2]; s.c., PG-PVA, 0.11 mmol/kg): 22%
% Inhibition ([2]; s.c., PG-PVA, 0.23 mmol/kg): 49%
% Inhibition ([2]; s.c., PG-PVA, 0.45 mmol/kg): 91%

C[C@H](N)C(=O)O [L-alanine, reference compound]
ED50 ([2]; oral, 5% gum arabic in saline): > 4.49 mmol/kg
% Inhibition ([2]; oral, 5% gum arabic, 4.49 mmol/kg): 14%

CN1CC[C@]23c4c5ccc(O)c4O[C@H]2[C@@H](O)C=C[C@H]3[C@H]1C5 [morphine, reference compound]
ED50 ([1]; Rattus norvegicus, sc, read-out: ED50 (AA)): 0.002 mmol/kg
ED50 (AA) ([1]; s.c., hydrochloride salt in saline): 0.002 mmol/kg
% Inhibition ([1]; s.c., hydrochloride salt in saline, 0.001 mmol/kg): 20%
% Inhibition ([1]; s.c., hydrochloride salt in saline, 0.002 mmol/kg): 40%
% Inhibition ([1]; s.c., hydrochloride salt in saline, 0.004 mmol/kg): 60%

N[C@@H](CS)C(=O)O [L-cysteine, reference compound]
ED50 ([2]; oral, 5% gum arabic in saline): > 3.30 mmol/kg
% Inhibition ([2]; oral, 5% gum arabic, 3.30 mmol/kg): -5%

NCC(=O)O [Glycine, reference compound]
ED50 ([2]; oral, 5% gum arabic in saline): > 5.33 mmol/kg
% Inhibition ([2]; oral, 5% gum arabic, 5.33 mmol/kg): 36%
